The record followed here is patent publication US11628160B2, “Compositions and methods for treating brain injury” (Azevan Pharmaceuticals, Inc., priority 2017, dated 2023).

In the assay the target is T1, human V1a receptor (Homo sapiens, UniProt P37288).
T1 construct: host or cells: CHO cells
The assay is described as follows: Human vasopressin V1a receptor binding assay. Conditions: hV1a CHO cell line, competition with 1 nM 3H-AVP; for IC50: read-out: V1a Binding Affinity IC50; for Ki: read-out: V1a Ki. How it is done: EXAMPLE. Human vasopressin V1a receptor binding assay. A cell line expressing the human V1a receptor in CHO cells (henceforth referred to as the hV1a cell line) was obtained from Dr. Michael Brownstein, NIMH, Bethesda, Md., USA. The hV1a cDNA sequence is described by Thibonnier et al., Journal of Biological Chemistry, 269, 3304-3310 (1994), and the expression method was the same as described by Morel et al. (1992). The hV1a cell line was grown in alpha-MEM with 10% fetal bovine serum and 250 ug/ml G418 (Gibco, Grand Island, N.Y., USA). For competitive binding assay, hV1a cells were plated into 6-well culture plate at 1:10 dilution from a confluency flask, and maintained in culture for at least two days. Culture medium was then removed, cells were washed with 2 ml binding buffer (25 mM Hepes, 0.25% BSA, 1×DMEM, PH=7.0). To each well, 990 μl binding buffer containing 1 nM 3H-AVP was added, and followed by 10 μl series diluted Example compounds dissolved in DMSO. […] 100 nM cold AVP (Sigma) was used to assess non-specific binding. Cells were incubated for 45 minutes at 37° C., assay mixture was removed and each well was washed three times with PBS (pH=7.4). 1 ml 2% SDS was added per well and plates were let sit for 30 minutes. The whole content in a well was transferred to a scintillation vial. Each well was rinsed with 0.5 ml PBS which was then added to the corresponding vial. Scintillation fluid (Ecoscint, National Diagnostics, Atlanta, Ga.) was then added at 3 ml per vial. Samples were counted in a liquid scintillation counter (Beckman LS3801). IC50 values were calculated by Prism Curve fitting software.
All of the alkanedioic esters and amides exemplified in the foregoing examples dissolved in DMSO were tested in this assay. Binding curves were generated according to methods described by Thibonnier et al. (1994). [^3H]-AVP was added to the hV1a cell cultures followed by 10-fold dilutions of each test compound.

T1 sequence (P37288 whole entry): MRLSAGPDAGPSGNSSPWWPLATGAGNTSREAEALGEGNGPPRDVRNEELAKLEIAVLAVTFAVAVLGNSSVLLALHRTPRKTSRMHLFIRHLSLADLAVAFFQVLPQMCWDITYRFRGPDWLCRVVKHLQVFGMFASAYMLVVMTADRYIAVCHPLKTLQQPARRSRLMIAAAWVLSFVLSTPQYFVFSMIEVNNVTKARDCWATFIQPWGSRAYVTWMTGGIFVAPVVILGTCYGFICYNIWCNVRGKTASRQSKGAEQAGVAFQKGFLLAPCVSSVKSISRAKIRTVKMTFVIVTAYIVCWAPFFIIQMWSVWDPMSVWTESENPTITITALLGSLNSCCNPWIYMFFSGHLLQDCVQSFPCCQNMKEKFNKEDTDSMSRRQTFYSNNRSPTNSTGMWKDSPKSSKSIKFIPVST

For `O=C(NC1(c2ccccc2)CCCC1)C(CCC(=O)N1CCN(C2CCCCC2)CC1)N1C(=O)C(N2C(=O)OCC2c2ccccc2)C1C=Cc1cccc(Cl)c1` (stereo not shown) [Example 244], the IC50 (in general, the midpoint of a concentration-inhibition curve) was 3.4 nM and the Ki (usually the equilibrium dissociation constant of an inhibitor or competing ligand from its target) came out at 2.1 nM. The matching figures for `O=C(NC1CCCc2ccccc21)C(CCC(=O)N1CCN(C2CCCCC2)CC1)N1C(=O)C(N2C(=O)OCC2c2ccccc2)C1C=Cc1cccc(F)c1` (stereo not shown) [Example 245]: 1.1 nM and 0.68 nM. For `O=C(NC1CCCc2ccccc21)C(CCC(=O)N1CCN(C2CCCCC2)CC1)N1C(=O)C(N2C(=O)OCC2c2ccccc2)C1C=Cc1cccc(C(F)(F)F)c1` (stereo not shown) [Example 246], the IC50 is 2.1 nM and the inhibition constant (Ki) came out at 1.3 nM. For `CN(Cc1cccc(C(F)(F)F)c1)C(=O)C(CC(=O)N1CCC(N2CCCCC2)CC1)N1C(=O)C(N2C(=O)OCC2c2ccccc2)C1C=Cc1cccc(Cl)c1` (stereo not shown) [Example 247], in that order: 0.6 nM and 0.39 nM.

For `N#Cc1cccc(C=CC2C(N3C(=O)OCC3c3ccccc3)C(=O)N2C(CCC(=O)N2CCN(C3CCCCC3)CC2)C(=O)NC2CCCc3ccccc32)c1` (stereo not shown) [Example 248], the half-inhibitory concentration (IC50) came to 5.3 nM and the inhibitory constant (Ki) worked out at 3.3 nM.

As for `O=C(NC1CCCc2ccccc21)C(CCC(=O)N1CCN(C2CCCCC2)CC1)N1C(=O)C(N2C(=O)OCC2c2ccccc2)C1C=Cc1cccc([N+](=O)[O-])c1` (stereo not shown) [Example 249], the IC50 is 1.7 nM and the inhibitory constant (Ki) turned out to be 1 nM. The matching figures for `O=C(NC1CCCc2ccccc21)C(CCC(=O)N1CCN(C2CCCCC2)CC1)N1C(=O)C(N2C(=O)OCC2c2ccccc2)C1C=Cc1ccccc1Cl` (stereo not shown) [Example 250]: 6.5 nM and 4 nM.

With `O=C(NC1CCCc2ccccc21)C(CCC(=O)N1CCN(C2CCCCC2)CC1)N1C(=O)C(N2C(=O)OCC2c2cccc(Cl)c2)C1C=Cc1cccc(Cl)c1` (stereo not shown) [Example 251], the IC50 was 0.5 nM and the Ki was 0.3 nM. Take `O=C(NC1CCCc2ccccc21)C(CCC(=O)N1CCN(C2CCCCC2)CC1)N1C(=O)C(N2C(=O)OCC2c2ccccc2)C1C=Cc1cc(Cl)cc(Cl)c1` (stereo not shown) [Example 252]: the concentration for half-maximal inhibition (IC50) was found to be 1.8 nM and the Ki was 1.1 nM.

For the compound `CC(NC(=O)C(CC(=O)N1CCC(N2CCCCC2)CC1)N1C(=O)C(N2C(=O)OCC2c2cccc(Cl)c2)C1C=Cc1ccccc1)c1ccccc1` (stereo not shown) [Example 256], the half-inhibitory concentration (IC50) was determined as 2.8 nM and the Ki is 1.7 nM. For `CC(NC(=O)C(CC(=O)N1CCC(N2CCCCC2)CC1)N1C(=O)C(N2C(=O)OCC2c2ccccc2)C1CCc1cccc(Cl)c1)c1ccccc1` (stereo not shown) [Example 559], in that order: 0.12 nM and 0.073 nM.

`CC(NC(=O)C(CC(=O)N1CCC(N2CCCCC2)CC1)N1C(=O)C(N2C(=O)OCC2c2ccccc2)C1CCc1ccc(O)cc1)c1ccccc1` (stereo not shown) [Example 594]: the Ki was found to be 19 nM. `CC(NC(=O)C(CC(=O)N1CCC(N2CCCCC2)CC1)N1C(=O)C(N2C(=O)OCC2c2ccccc2)C1CCc1cccc([N+](=O)[O-])c1)c1ccccc1` (stereo not shown) [Example 597]: the 50% inhibitory concentration (IC50) was 6.2 nM and the Ki came to 3.8 nM. Turning to `CC(NC(=O)C(CC(=O)N1CCC(N2CCCCC2)CC1)N1C(=O)C(N2C(=O)OCC2c2ccccc2)C1CCc1cccc(N)c1)c1ccccc1` (stereo not shown) [Example 600], the IC50 amounted to 14.4 nM and the Ki turned out to be 8.8 nM. The matching figures for `CC(NC(=O)C(CC(=O)N1CCC(N2CCCCC2)CC1)N1C(=O)C(N2C(=O)OCC2c2ccccc2)C1CCc1cccc(Br)c1)c1ccccc1` (stereo not shown) [Example 606]: 0.53 nM and 0.32 nM. Regarding `CN(Cc1cccc(C(F)(F)F)c1)C(=O)C(CC(=O)N1CCC(N2CCCCC2)CC1)N1C(=O)C(N2C(=O)OCC2c2ccccc2)C1CCc1cccc(Br)c1` (stereo not shown) [Example 617], the inhibition constant (Ki) came out at 0.69 nM. As to `O=C(NC(c1ccccc1)C(F)(F)F)C(CC(=O)N1CCC(N2CCCCC2)CC1)N1C(=O)C(N2C(=O)OCC2c2ccccc2)C1CCc1ccccc1` (stereo not shown) [Example 623], the Ki is 0.85 nM. On to `O=C(NC(c1ccccc1)C(F)(F)F)C(CC(=O)N1CCC(N2CCCCC2)CC1)N1C(=O)C(N2C(=O)OCC2c2ccccc2)C1CCc1ccccc1` (stereo not shown) [Example 626], for which the inhibition constant (Ki) is 0.27 nM. Still for that read-out and setting: for `O=C(NCc1ccccc1F)C(CC(=O)N1CCC(N2CCCCC2)CC1)N1C(=O)C(N2C(=O)OCC2c2ccccc2)C1CCc1ccccc1` (stereo not shown) [Example 677] the value was 3 nM; for `O=C(NCc1ccccc1Br)C(CC(=O)N1CCC(N2CCCCC2)CC1)N1C(=O)C(N2C(=O)OCC2c2ccccc2)C1CCc1ccccc1` (stereo not shown) [Example 682], 0.9 nM. The same measure, in the same setting: under `Cc1cccc(CCC2C(N3C(=O)OCC3c3ccccc3)C(=O)N2C(CC(=O)N2CCC(N3CCCCC3)CC2)C(=O)NC(C)c2ccccc2)c1` (stereo not shown) [Example 778] stands 0.63 nM. As for “(2S)-[(4-cyclohexylpiperazinyl)carbonylethyl]-2-[3(S)-(4(S)-phenyloxazolidin-2-on-3-yl)-4(R)-(2-phenyleth-1-yl)azetidin-2-on-1-yl]acetic acid N—[(R)-1,2,3,4-tetrahydronaphth-1-yl]amide [Example 236A]”, the 50% inhibitory concentration (IC50) was found to be 9 nM and the inhibitory constant (Ki) was 5.5 nM.
